Structures can show the parent of a compound that is named as a salt.

Assay [1] concerns the target Recombinant full length human OGA enzyme (Homo sapiens (Human), UniProt O60502). The assay is described as follows: OGA Enzyme Inhibition Biochemical Assay. As for the experimental part:
Recombinant full length human OGA enzyme was purchased from Origene. 4-MUGlcNAc substrate was purchased from Sigma. All other reagents were purchased from Sigma or Fisher. Assay buffer consists of the McIlvaine buffer system, pH 6.4 (0.2M Na2HPO4 mixed with 0.1M citric acid) and 0.01% BSA. […] Reactions were incubated for 90 minutes at room temperature and quenched with 40 μl of 3M glycine, pH 10 and read on a Perkin Elmer Envision plate reader (Ex: 355 nm/Em: 460 nm). Compounds were tested with a 10-point dose-response starting from 20 μM with a 4-fold dilution. Data was fit using GraphPad Prism using a 4-parameter fit with variable slope.

In assay [2] the target is OGA (S400 O-GLCNAC), HEK-293T cells transfected with Tau-V5 (Homo sapiens (Human), UniProt O60502). In words: Cellular OGA-Tau MSD Assay. The format is cell-based. How it is done:
HEK-293T cells were transfected with […] and Tau-V5 plasmids using Lipofectamine and grown overnight. Next day, the cells were collected and re-plated at 1×10^5 cells per well in 96 well plates. Cells were incubated for 4 hr at 37° C., before compounds were added at 1 uM, with 3-fold dilutions in a 10-point titration. Cell plates were incubated with compounds overnight at 37° C. The next day media was removed from wells by gentle aspiration and 120 ul of 1× Cell Lysis buffer mixed with protease and phosphatase cocktail added to each well. A freeze thaw was performed at -80° C., then mixed before transferring 50 ul to MSD plates coated with V5-tag antibody to capture Tau. MSD Plates were incubated overnight at 4° C., on a plate shaker. The following day, plates were washed and incubated with Tau-[…]-GlcNAc antibody for 2 hr and then developed with rabbit Sulfo-tag antibody. Final read out was carried out on an MSD 600 reader. The data was analyzed using Graph Pad or Genedata, the data was normalized and % activity versus log of compound concentration was plotted. The IC50 values were obtained from a 4 parameter fit.

[3] abbreviates: 1 nM OGA, 100 μM 4-MUGlcNAc, pH 6.4.
Setting [4] is: HEK-293T cells, Tau-S400-GlcNAc MSD readout.
Where [5] appears, read: repeated assay, value marked with asterisk (*).

Sequence of Recombinant full length human OGA enzyme (O60502 whole entry): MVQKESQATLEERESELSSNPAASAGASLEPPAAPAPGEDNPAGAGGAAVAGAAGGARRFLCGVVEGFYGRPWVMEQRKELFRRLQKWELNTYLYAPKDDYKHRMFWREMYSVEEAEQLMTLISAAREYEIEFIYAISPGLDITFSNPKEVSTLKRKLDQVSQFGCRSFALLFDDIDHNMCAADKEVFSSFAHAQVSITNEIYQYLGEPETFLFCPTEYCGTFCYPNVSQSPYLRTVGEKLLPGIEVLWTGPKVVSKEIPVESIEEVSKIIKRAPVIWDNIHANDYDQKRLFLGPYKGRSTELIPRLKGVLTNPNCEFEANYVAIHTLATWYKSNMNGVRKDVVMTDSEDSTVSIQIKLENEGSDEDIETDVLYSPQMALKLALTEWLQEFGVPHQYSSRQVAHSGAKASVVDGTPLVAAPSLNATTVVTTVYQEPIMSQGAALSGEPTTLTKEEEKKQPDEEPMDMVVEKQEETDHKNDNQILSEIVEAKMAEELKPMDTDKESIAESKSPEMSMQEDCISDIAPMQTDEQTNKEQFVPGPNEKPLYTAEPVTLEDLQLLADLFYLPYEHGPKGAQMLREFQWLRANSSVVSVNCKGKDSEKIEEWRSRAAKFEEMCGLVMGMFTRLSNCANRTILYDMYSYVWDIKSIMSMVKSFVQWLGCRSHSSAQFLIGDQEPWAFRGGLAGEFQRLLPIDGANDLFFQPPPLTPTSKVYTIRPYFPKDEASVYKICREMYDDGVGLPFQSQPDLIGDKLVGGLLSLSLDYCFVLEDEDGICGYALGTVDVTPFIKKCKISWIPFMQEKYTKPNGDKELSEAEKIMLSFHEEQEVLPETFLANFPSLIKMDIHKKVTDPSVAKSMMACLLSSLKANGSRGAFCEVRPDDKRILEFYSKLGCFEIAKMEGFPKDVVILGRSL
Sequence of OGA (S400 O-GLCNAC), HEK-293T cells transfected with Tau-V5 (O60502 whole entry): as above

For orientation: IC50 means the concentration that gives 50% inhibition. Take `[2H]C([2H])([2H])Oc1cc(O[C@@H]2C[C@H](C)N(Cc3sc(NC(C)=O)nc3F)C2)ncn1` (single isomer, unassigned) [Example 1-155]: the IC50 in assay [1] (setting [3]) was under 1 nM; in assay [2] (setting [4]), 2 nM. On to `[2H]C([2H])([2H])C(=O)Nc1nc(F)c(CN2C[C@H](Oc3cc(OC)ncn3)C[C@@H]2C)s1` (single isomer, unassigned) [Example 1-157, trifluoroacetate salt], for which the half-inhibitory concentration (IC50) in assay [1] (setting [3]) is under 1 nM; in assay [2] (setting [4]) it was 3 nM. For `[2H]C(c1sc(NC(C)=O)nc1F)N1C[C@H](Oc2cc(OC)ncn2)C[C@@H]1C` (single isomer, unassigned) [Example 1-159], the concentration for half-maximal inhibition (IC50) is under 1 nM in assay [1] (setting [3]) and 1 nM in assay [2] (setting [4]).

With `[2H]C([2H])(c1sc(NC(C)=O)nc1F)N1C[C@H](Oc2cc(OC)ncn2)C[C@@H]1C` (single isomer, unassigned) [Example 1-161], the IC50 in assay [1] (setting [3]) was under 1 nM; in assay [2] (setting [4]), 4 nM. For `[2H][C@@]1(Oc2cc(OC)ncn2)C[C@H](C)N(Cc2sc(NC(C)=O)nc2F)C1` (single isomer, unassigned) [Example 1-165], in that order: under 1 nM and 2 nM. On the same counts, the results for `CC(=O)Nc1ncc(CN2C[C@H](Oc3ccc(F)cn3)CC[C@@H]2C)s1` [Example 1-4, N-(5-(((2S,5R)-5-((5-fluoropyridin-2-yl)oxy)-2-methylpiperidin-1-yl)methyl)thiazol-2-yl)acetamide] are 1.2 nM and 6 nM. Regarding `CC(=O)Nc1ncc(CN2C[C@@H](Oc3ccc(F)cn3)CC[C@@H]2C)s1` [Example 1-5, N-(5-(((2S,5S)-5-((5-fluoropyridin-2-yl)oxy)-2-methylpiperidin-1-yl)methyl)thiazol-2-yl)acetamide], the concentration for half-maximal inhibition (IC50) was determined as 1.6 nM in assay [1] (setting [3]) and 4 nM in assay [2] (setting [4]). For `CC(=O)Nc1ncc(CN2CC[C@H](Oc3ccc(F)cn3)C2)s1` [Example 1-7, (S)—N-(5-((3-((5-fluoropyridin-2-yl)oxy)pyrrolidin-1-yl)methyl)thiazol-2-yl)acetamide], the IC50 in assay [1] (setting [3]) is over 1000 nM; in assay [1] (setting [5]), 2000 nM. In the case of `COc1ncnc(O[C@@H]2C[C@H](C)N(Cc3cnc(NC(C)=O)s3)C2)c1F` [Example 1-19, N-(5-(((2S,4R)-4-((5-fluoro-6-methoxypyrimidin-4-yl)oxy)-2-methylpyrrolidin-1-yl)methyl)thiazol-2-yl)acetamide], the figures for the concentration for half-maximal inhibition (IC50) in assay [1] (setting [3]) and in assay [2] (setting [5]) were 1.2 nM and 6 nM, respectively. For `COc1cc(O[C@@H]2C[C@H](C)N(Cc3sc(NC(C)=O)nc3F)C2)ncn1` [Example 1-22, N-(4-Fluoro-5-(((2S,4R)-4-((6-methoxypyrimidin-4-yl)oxy)-2-methylpyrrolidin-1-yl)methyl)thiazol-2-yl)acetamide], the IC50 is under 1 nM in assay [1] (setting [3]) and 2 nM in assay [2] (setting [4]). On the same counts, the results for `CC(=O)Nc1nc(F)c(CN2C[C@H](Oc3cc(N4CCC4)ncn3)C[C@@H]2C)s1` [Example 1-24, N-(5-(((2S,4R)-4-((6-(azetidin-1-yl)pyrimidin-4-yl)oxy)-2-methylpyrrolidin-1-yl)methyl)-4-fluorothiazol-2-yl)acetamide] are under 1 nM and 1 nM. In the case of `CC(=O)Nc1nc(F)c(CN2C[C@H](Oc3cc(N4CC(F)C4)ncn3)C[C@@H]2C)s1` [Example 1-25, N-(4-fluoro-5-(((2S,4R)-4-((6-(3-fluoroazetidin-1-yl)pyrimidin-4-yl)oxy)-2-methylpyrrolidin-1-yl)methyl)thiazol-2-yl)acetamide], the IC50 in assay [1] (setting [3]) and in assay [2] (setting [4]) was under 1 nM in each case.

On to `CC(=O)Nc1nc(F)c(CN2C[C@H](Oc3cc(N4CC(F)(F)C4)ncn3)C[C@@H]2C)s1` [Example 1-26, N-(5-(((2S,4R)-4-((6-(3,3-difluoroazetidin-1-yl)pyrimidin-4-yl)oxy)-2-methylpyrrolidin-1-yl)methyl)-4-fluorothiazol-2-yl)acetamide], for which the IC50 in assay [1] (setting [3]) was under 1 nM; in assay [2] (setting [4]), 1 nM. As to `COc1cc(O[C@H]2CCN(Cc3sc(NC(C)=O)nc3F)C2)ncn1` [Example 1-27, (S)—N-(4-fluoro-5-((3-((6-methoxypyrimidin-4-yl)oxy)pyrrolidin-1-yl)methyl)thiazol-2-yl)acetamide], in assay [1] (setting [3]), the IC50 amounted to 850 nM. Take `COc1cc(O[C@@H]2C[C@@H](C)N(Cc3sc(NC(C)=O)nc3F)C2)ncn1` [Example 1-29, N-(4-fluoro-5-(((2R,4R)-4-((6-methoxypyrimidin-4-yl)oxy)-2-methylpyrrolidin-1-yl)methyl)thiazol-2-yl)acetamide]: the IC50 in assay [1] (setting [3]) is 58 nM; in assay [2] (setting [4]), 97 nM. As to `COc1cc(O[C@H]2C[C@H](C)N(Cc3sc(NC(C)=O)nc3F)C2)ncn1` [Example 1-30, N-(4-fluoro-5-(((2S,4S)-4-((6-methoxypyrimidin-4-yl)oxy)-2-methylpyrrolidin-1-yl)methyl)thiazol-2-yl)acetamide], the IC50 in assay [1] (setting [3]) came to 15 nM; in assay [2] (setting [4]), 21 nM. As to `COc1cc(O[C@H]2C[C@@H](C)N(Cc3sc(NC(C)=O)nc3F)C2)ncn1` [Example 1-31, N-(4-fluoro-5-(((2R,4S)-4-((6-methoxypyrimidin-4-yl)oxy)-2-methylpyrrolidin-1-yl)methyl)thiazol-2-yl)acetamide], the half-inhibitory concentration (IC50) in assay [1] (setting [3]) was 2900 nM; in assay [2] (setting [4]) it was over 1000 nM.

With `COc1cc(O[C@H]2CCN(Cc3cnc(NC(C)=O)s3)C2)ncn1` [Example 1-36, (S)—N-(5-((3-((6-methoxypyrimidin-4-yl)oxy)pyrrolidin-1-yl)methyl)thiazol-2-yl)acetamide], the IC50 in assay [1] (setting [3]) was determined as 1700 nM. On to `COc1cc(O[C@@H]2CCN(Cc3cnc(NC(C)=O)s3)C2)ncn1` [Example 1-37, (R)—N-(5-((3-((6-methoxypyrimidin-4-yl)oxy)pyrrolidin-1-yl)methyl)thiazol-2-yl)acetamide], for which the IC50 in assay [1] (setting [3]) stood at 36 nM; in assay [2] (setting [4]) it was 27 nM. `CC(=O)Nc1ncc(CN2C[C@@H](Oc3cc(C)nc(C)c3)CC[C@@H]2C)s1` [Example 1-66, N-(5-(((2S,5S)-5-((2,6-dimethylpyridin-4-yl)oxy)-2-methylpiperidin-1-yl)methyl)thiazol-2-yl)acetamide]: the IC50 is under 1 nM in assay [1] (setting [3]) and 4 nM in assay [2] (setting [4]).

With `CC(=O)Nc1ncc(CN2C[C@H](Oc3cc(C)nc(C)c3)CC[C@@H]2C)s1` [Example 1-67, N-(5-(((2S,5R)-5-((2,6-dimethylpyridin-4-yl)oxy)-2-methylpiperidin-1-yl)methyl)thiazol-2-yl)acetamide], the results for the IC50 in assay [1] (setting [3]) and in assay [2] (setting [4]) were under 1 nM and 3 nM, respectively. `CC(=O)Nc1ncc(CN2C[C@H](Oc3cc(=O)n(C)cn3)C[C@@H]2C)s1` [Example 1-70, N-(5-(((2S,4R)-2-methyl-4-((1-methyl-6-oxo-1,6-dihydropyrimidin-4-yl)oxy)pyrrolidin-1-yl)methyl)thiazol-2-yl)acetamide]: the IC50 in assay [2] (setting [4]) came to 5 nM. Regarding `COc1cncnc1O[C@@H]1C[C@H](C)N(Cc2cnc(NC(C)=O)s2)C1` [Example 1-74], the IC50 in assay [1] (setting [3]) came out at 6.4 nM; in assay [2] (setting [4]), 13 nM.

`CC(=O)Nc1nc(F)c(CN2C[C@H](Oc3cc(C)c(F)cn3)C[C@@H]2C)s1` [Example 1-117, N-(4-fluoro-5-(((2S,4R)-4-((5-fluoro-4-methylpyridin-2-yl)oxy)-2-methylpyrrolidin-1-yl)methyl)thiazol-2-yl)acetamide]: the IC50 in assay [1] (setting [3]) is under 1 nM.

Regarding `COCCOc1cnc(O[C@@H]2C[C@H](C)N(Cc3sc(NC(C)=O)nc3F)C2)cn1` [Example 1-144, N-(4-fluoro-5-(((2S,4R)-4-((5-(2-methoxyethoxy)pyrazin-2-yl)oxy)-2-methylpyrrolidin-1-yl)methyl)thiazol-2-yl)acetamide], the IC50 in assay [1] (setting [3]) was under 1 nM.

Consider `COCCN(C)c1ccnc(O[C@@H]2C[C@H](C)N(Cc3sc(NC(C)=O)nc3F)C2)c1` [Example 1-145, N-(4-fluoro-5-(((2S,4R)-4-((4-((2-methoxyethyl) (methyl)amino)pyridin-2-yl)oxy)-2-methylpyrrolidin-1-yl)methyl)thiazol-2-yl)acetamide], for which the IC50 in assay [1] (setting [3]) is under 1 nM. On to `CC(=O)Nc1nc(F)c(CN2C[C@H](Oc3ccc(N4CCOCC4)cn3)C[C@@H]2C)s1` [Example 1-146, N-(4-fluoro-5-(((2S,4R)-2-methyl-4-((5-morpholinopyridin-2-yl)oxy)pyrrolidin-1-yl)methyl)thiazol-2-yl)acetamide], for which, in assay [1] (setting [3]), the IC50 was under 1 nM.

For the molecule `COCCOc1ccnc(O[C@@H]2C[C@H](C)N(Cc3sc(NC(C)=O)nc3F)C2)c1` [Example 1-147, N-(4-fluoro-5-(((2S,4R)-4-((4-(2-methoxyethoxy)pyridin-2-yl)oxy)-2-methylpyrrolidin-1-yl)methyl)thiazol-2-yl)acetamide], in assay [1] (setting [3]), the half-maximal inhibitory concentration (IC50) is under 1 nM.
